PMC10218007, “Potential Clinically Relevant Effects of Sialylation on Human Serum AAG-Drug Interactions Assessed by Isothermal Titration Calorimetry: Insight into Pharmacoglycomics?” (International Journal of Molecular Sciences, 2023)
Where a name gives a salt, the structure may show the parent alone.

Experiments:
AAG + s or AAG − s = settings: calculated; for Decrease of free drug concentration, AAG − s vs AAG + s, in the presence of HSA: with 0.64 mM HSA, depending on the conditions
From the text: AAG is an acute-phase protein with variable concentration in plasma and this consequently affects the free drug concentration. Hyperquad simulation and speciation software (HySS 4.0.31) was used to calculate the fraction of free vs. bound drug by solving the mass balance equations using the measured binding affinities. […] The plasma concentrations of the drug vary over time depending on the dosing regimen, and steady–state concentrations were used in the model.
In addition to AAG, human serum albumin (HSA) also plays a critical role in drug binding due to its high plasma concentration. Therefore, to obtain more realistic estimates, the free drug concentration was calculated taking into account the available data on the binding of the studied drugs to HSA.

[1] = ref 46 lidocaine, 47 diltiazem, 48 clindamycin, 49 warfarin, cited from earlier work; for Cmax: usual therapeutic peak plasma level
[2] = cited from earlier work; for pKa: ref (5) lidocaine and diltiazem, (6) clindamycin, (7) warfarin
[3] = molecular target: Native human AAG (AAG + s) (Homo sapiens, UniProt P02763); test: ITC titration of native AAG (AAG + s) with drugs; format: binding; settings: 310 K
Description: (§1) All chemicals were used without further purification. Immobilized SialEXO® (derived from Akkermansia muciniphilla and expressed in E. Coli) was obtained from Smart Enzymes™ Genovis (Lund, Sweden), and HEPES buffer was obtained from VWR International (Leuven, Belgium). All other reagents were of analytical grade or better. All solutions were prepared immediately before the experiments in order to minimize contamination and/or impair the stability of solutions. The solutions for microcalorimetric titrations were prepared in 25 mM HEPES at pH 7.40 containing 150 mM NaCl (Kemika, Zagreb, Croatia), using doubly distilled water and 5 M NaOH (Kemika, Zagreb, Croatia) for adjusting the pH value. AAG and drug solutions were prepared by dissolving the appropriate amount of solid in the given solvent.
The ITC titrations were performed on a MicroCal PEAQ–ITC calorimeter (Malvern Panalytical Ltd., Malvern, UK). The solutions were thoroughly degassed beforehand, under vacuum to avoid any formation of bubbles that might be present in the sample cell. All microcalorimetric measurements were performed at 37 °C. The volume of the sample cell was approximately 200 μ L and the volume of the burette (syringe) was 42 μ L. Each titration was performed in duplicate or triplicate. Blank experiments were performed to estimate corrections for the dilution heat.
AAG solution (100 – 200 μ M) was loaded into the sample cell using a calibrated syringe (1 mL Hamilton) and titrated with 1 – 2 mM drug solutions. The sample cell was continuously stirred at 700 rpm. Differential power (DP) is arbitrarily applied to each titration. The interval between successive injections was 200 s, which is long enough for the signal to return to its baseline and to ensure equilibrium after each addition. Double distilled water was present in the reference cell during all experiments. To correct for the thermal effect, control titrations were performed for drug solution in buffer under the same conditions as the AAG–drug titrations and dilution heat was subtracted from the AAG–drug titration data.
(§2) All ITC data were analyzed with MicroCal PEAQ-ITC Analysis Software 1.30 using the One Set Sites Fitting Model. […] All p values were calculated using the t-test() function in Microsoft Excel (Microsoft Corporation, Redmond, WA, USA).

[4] = molecular target: Desialylated human AAG (AAG − s) (Homo sapiens, UniProt P02763); test: ITC titration of desialylated AAG (AAG − s) with drugs; format: binding; settings: 310 K
Description: as §1
The ITC titrations were performed on a MicroCal PEAQ–ITC calorimeter (Malvern Panalytical Ltd., Malvern, UK). The solutions were thoroughly degassed beforehand, under vacuum to avoid any formation of bubbles that might be present in the sample cell. All microcalorimetric measurements were performed at 37 °C. […]
as §2

AAG+s = settings: log Ka = log (1/KD), KD in M; ref (2) lidocaine, (3) warfarin, (4) clindamycin; cited from earlier work

Sequence of Native human AAG (AAG + s) (P02763 19-201): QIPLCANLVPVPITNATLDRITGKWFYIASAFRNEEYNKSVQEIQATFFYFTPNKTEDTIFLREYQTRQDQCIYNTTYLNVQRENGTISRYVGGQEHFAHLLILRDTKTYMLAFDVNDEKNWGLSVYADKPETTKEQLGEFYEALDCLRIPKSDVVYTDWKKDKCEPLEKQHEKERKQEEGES
Sequence of Desialylated human AAG (AAG − s) (P02763 19-201): as above

Decrease of free plasma concentration with AAG − s vs AAG + s (AAG + s or AAG − s; AAG only, no HSA)	Compound	Decrease of free drug concentration, AAG − s vs AAG + s, in the presence of HSA (AAG + s or AAG − s)	Ctrough ([1]; usual therapeutic trough plasma level)	Fraction present in protonated form ([2]; at the measured pH (7.40))	N (number of drug binding sites), AAG + s [3]	Δr S°, AAG + s [3]	N (number of drug binding sites), AAG − s [4]	Cmax [1]	pKa [2]	Reference AAG+s log KA (AAG+s)
	CCN(CC)CC(=O)Nc1c(C)cccc1C [Lidocaine, lidocaine]	10% to 40	6.40 µM							
	clindamycin phosphate			about 30%						
	CC(=O)CC(c1ccccc1)c1c(O)c2ccccc2oc1=O (stereo not shown) [Warfarin, Warfarin sodium salt]	10% to 40			0.654 ± 0.117	−191± 5.42 J K^−1 mol^−1	0.795 ± 0.0290	9.08 µM	4.99	5.34
20–30%	COc1ccc([C@@H]2Sc3ccccc3N(CCN(C)C)C(=O)[C@@H]2OC(C)=O)cc1 [Diltiazem, diltiazem hydrochloride]				0.804 ± 0.238	7.80 ± 1.74 J K^−1 mol^−1	0.868 ± 0.0290	0.44 µM	8.03	
